Data published in ChEMBL document CHEMBL2413072, “Synthesis and in vitro anticancer studies of novel C-2 arylidene congeners of lantadenes” (2013).

Legend:
Format in all cases: functional
KM12 = experiment: Growth inhibition of human KM12 cells by sulforhodamine B assay
M14 [1] = experiment: Growth inhibition of human M14 cells by sulforhodamine B assay
OVCAR-8 = experiment: Growth inhibition of human OVCAR8 cells assessed as cell growth at 10^-7 M by sulforhodamine B assay; conditions: read-out: Activity
HT-29 [2] = experiment: Growth inhibition of human HT-29 cells by sulforhodamine B assay
MDA-MB-468 [3] = experiment: Growth inhibition of human MDA-MB-468 cells assessed as cell growth at 10^-8 M by sulforhodamine B assay; conditions: read-out: Activity
SK-MEL-28 = experiment: Growth inhibition of human SK-MEL-28 cells by sulforhodamine B assay
[4] = Growth inhibition of human HCC2998 cells assessed as cell growth at 10^-6 M by sulforhodamine B assay; conditions: HCC 2998, read-out: Activity
MDA-MB-231 = experiment: Growth inhibition of human MDA-MB-231 cells assessed as cell growth at 10^-4 M by sulforhodamine B assay; conditions: read-out: Activity
HL-60(TB) = experiment: Growth inhibition of human HL-60(TB) cells assessed as cell growth at 10^-8 M by sulforhodamine B assay; conditions: read-out: Activity
SNB-75 = experiment: Growth inhibition of human SNB75 cells assessed as cell growth at 10^-6 M by sulforhodamine B assay; conditions: read-out: Activity
UACC-62 = experiment: Growth inhibition of human UACC62 cells assessed as cell growth at 10^-7 M by sulforhodamine B assay; conditions: read-out: Activity
SK-MEL-5 = experiment: Growth inhibition of human SK-MEL-5 cells assessed as cell growth at 10^-6 M by sulforhodamine B assay; conditions: read-out: Activity
SK-OV-3 [5] = experiment: Growth inhibition of human SKOV3 cells assessed as cell growth at 10^-6 M by sulforhodamine B assay; conditions: read-out: Activity
TK-10 = experiment: Growth inhibition of human TK10 cells assessed as cell growth at 10^-4 M by sulforhodamine B assay; conditions: read-out: Activity
786-0 = experiment: Growth inhibition of human 786-0 cells assessed as cell growth at 10^-7 M by sulforhodamine B assay; conditions: read-out: Activity
MOLT-4 [6] = experiment: Growth inhibition of human MOLT4 cells assessed as cell growth at 10^-6 M by sulforhodamine B assay; conditions: read-out: Activity
SW-620 = experiment: Growth inhibition of human SW620 cells assessed as cell growth at 10^-8 M by sulforhodamine B assay; conditions: read-out: Activity
BT-549 [7] = experiment: Growth inhibition of human BT549 cells assessed as cell growth at 10^-7 M by sulforhodamine B assay; conditions: read-out: Activity
MOLT-4 [8] = experiment: Growth inhibition of human MOLT4 cells assessed as cell growth at 10^-7 M by sulforhodamine B assay; conditions: read-out: Activity
HOP-62 [9] = experiment: Growth inhibition of human HOP62 cells by sulforhodamine B assay
UACC-257 = experiment: Growth inhibition of human UACC257 cells assessed as cell growth at 10^-8 M by sulforhodamine B assay; conditions: read-out: Activity
HT-29 [10] = experiment: Growth inhibition of human HT-29 cells assessed as cell growth at 10^-4 M by sulforhodamine B assay; conditions: read-out: Activity
UO-31 = experiment: Growth inhibition of human UO31 cells assessed as cell growth at 10^-8 M by sulforhodamine B assay; conditions: read-out: Activity
SK-OV-3 [11] = experiment: Growth inhibition of human SKOV3 cells assessed as cell growth at 10^-8 M by sulforhodamine B assay; conditions: read-out: Activity
MDA-MB-468 [12] = experiment: Growth inhibition of human MDA-MB-468 cells by sulforhodamine B assay
OVCAR-5 [13] = experiment: Growth inhibition of human OVCAR5 cells assessed as cell growth at 10^-7 M by sulforhodamine B assay; conditions: read-out: Activity
K562 [14] = experiment: Growth inhibition of human K562 cells assessed as cell growth at 10^-7 M by sulforhodamine B assay; conditions: read-out: Activity
K562 [15] = experiment: Growth inhibition of human K562 cells by sulforhodamine B assay
PC-3 = experiment: Growth inhibition of human PC3 cells by sulforhodamine B assay
HOP-62 [16] = experiment: Growth inhibition of human HOP62 cells assessed as cell growth at 10^-4 M by sulforhodamine B assay; conditions: read-out: Activity
SK-OV-3 [17] = experiment: Growth inhibition of human SKOV3 cells assessed as cell growth at 10^-7 M by sulforhodamine B assay; conditions: read-out: Activity
M14 [18] = experiment: Growth inhibition of human M14 cells assessed as cell growth at 10^-6 M by sulforhodamine B assay; conditions: read-out: Activity
BT-549 [19] = experiment: Growth inhibition of human BT549 cells assessed as cell growth at 10^-6 M by sulforhodamine B assay; conditions: read-out: Activity
SF-268 = experiment: Growth inhibition of human SF268 cells assessed as cell growth at 10^-4 M by sulforhodamine B assay; conditions: read-out: Activity
ACHN = experiment: Growth inhibition of human ACHN cells assessed as cell growth at 10^-8 M by sulforhodamine B assay; conditions: read-out: Activity
NCI-H23 = experiment: Growth inhibition of human NCI-H23 cells assessed as cell growth at 10^-7 M by sulforhodamine B assay; conditions: read-out: Activity
LOX IMVI = experiment: Growth inhibition of human LOXIMVI cells assessed as cell growth at 10^-6 M by sulforhodamine B assay; conditions: read-out: Activity
Malme-3M = experiment: Growth inhibition of human MALME-3M cells by sulforhodamine B assay
OVCAR-5 [20] = experiment: Growth inhibition of human OVCAR5 cells by sulforhodamine B assay
[21] = read-out: LC50 (the source's name)
[22] = read-out: pLC50 (the source's name) (converted)

CC(C)=CC(=O)O[C@@H]1CC(C)(C)C[C@H]2C3=CC[C@@H]4[C@@]5(C)CCC(=O)C(C)(C)[C@@H]5CC[C@@]4(C)[C@]3(C)CC[C@@]12C(=O)O
GI50 (KM12; read-out: GI50): 0.879 µM | LC50 (50% net cell kill) (KM12; read-out: LC50): 59.3 µM | TGI (KM12; read-out: TGI): 15.3 µM | GI50 (KM12; read-out: pGI50 (converted)): 0.871 µM | LC50 (50% net cell kill) (KM12; read-out: pLC50 (converted)): 58.9 µM | TGI (KM12; read-out: pTGI (converted)): 15.5 µM | GI50 (M14 [1]; read-out: GI50): 6.52 µM | CC50 (M14 [1]; [21]): 76.6 µM | TGI (M14 [1]; read-out: TGI): 25.2 µM | GI50 (M14 [1]; read-out: pGI50 (converted)): 6.46 µM | CC50 (M14 [1]; [22]): 75.9 µM | TGI (M14 [1]; read-out: pTGI (converted)): 25.1 µM | growth at 0.1 µM (OVCAR-8): 96% | GI50 (HT-29 [2]; read-out: GI50): 3.94 µM | LC50 (50% cell kill) (HT-29 [2]; read-out: LC50): > 100 µM | TGI (HT-29 [2]; read-out: TGI): 32.3 µM | GI50 (HT-29 [2]; read-out: pGI50 (converted)): 3.98 µM | LC50 (50% cell kill) (HT-29 [2]; read-out: pLC50 (converted)): > 100 µM | TGI (HT-29 [2]; read-out: pTGI (converted)): 32.4 µM | growth at 0.01 µM (MDA-MB-468 [3]): 92% | GI50 (SK-MEL-28; read-out: GI50): 11.6 µM | CC50 (SK-MEL-28; [21]): > 100 µM | TGI (SK-MEL-28; read-out: TGI): > 100 µM | GI50 (SK-MEL-28; read-out: pGI50 (converted)): 11.7 µM | CC50 (SK-MEL-28; [22]): > 100 µM | TGI (SK-MEL-28; read-out: pTGI (converted)): > 100 µM | growth at 1 µM [4]: 88% | growth at 100 µM (MDA-MB-231): -64% | growth at 0.01 µM (HL-60(TB)): 106% | growth at 1 µM (SNB-75): 87% | growth at 0.1 µM (UACC-62): 97% | growth at 1 µM (SK-MEL-5): 60% | growth at 1 µM (SK-OV-3 [5]): 108% | growth at 100 µM (TK-10): -18% | growth at 0.1 µM (786-0): 99% | growth at 1 µM (MOLT-4 [6]): 85% | growth at 0.01 µM (SW-620): 100% | growth at 0.1 µM (BT-549 [7]): 109% | growth at 0.1 µM (MOLT-4 [8]): 100% | GI50 (HOP-62 [9]; read-out: GI50): 9.26 µM | LC50 (concentration killing 50% of cells) (HOP-62 [9]; read-out: LC50): > 100 µM | TGI (HOP-62 [9]; read-out: TGI): 49.8 µM | GI50 (HOP-62 [9]; read-out: pGI50 (converted)): 9.33 µM | LC50 (concentration killing 50% of cells) (HOP-62 [9]; read-out: pLC50 (converted)): > 100 µM | TGI (HOP-62 [9]; read-out: pTGI (converted)): 50.1 µM | growth at 0.01 µM (UACC-257): 88% | growth at 100 µM (HT-29 [10]): -27% | growth at 0.01 µM (UO-31): 88% | growth at 0.01 µM (SK-OV-3 [11]): 106% | GI50 (MDA-MB-468 [12]; read-out: GI50): 2.27 µM | CC50 (MDA-MB-468 [12]; [21]): > 100 µM | TGI (MDA-MB-468 [12]; read-out: TGI): 13.7 µM | GI50 (MDA-MB-468 [12]; read-out: pGI50 (converted)): 2.29 µM | CC50 (MDA-MB-468 [12]; [22]): > 100 µM | TGI (MDA-MB-468 [12]; read-out: pTGI (converted)): 13.8 µM | growth at 0.1 µM (OVCAR-5 [13]): 91% | growth at 0.1 µM (K562 [14]): 95% | GI50 (K562 [15]; read-out: GI50): 3.47 µM | LC50 (K562 [15]; read-out: LC50): > 100 µM | TGI (K562 [15]; read-out: TGI): > 100 µM | GI50 (K562 [15]; read-out: pGI50 (converted)): 3.47 µM | LC50 (K562 [15]; read-out: pLC50 (converted)): > 100 µM | TGI (K562 [15]; read-out: pTGI (converted)): > 100 µM | GI50 (PC-3; read-out: GI50): 1.55 µM | CC50 (PC-3; [21]): > 100 µM | TGI (PC-3; read-out: TGI): 89.1 µM | GI50 (PC-3; read-out: pGI50 (converted)): 1.55 µM | CC50 (PC-3; [22]): > 100 µM | TGI (PC-3; read-out: pTGI (converted)): 89.1 µM | growth at 100 µM (HOP-62 [16]): -21% | growth at 0.1 µM (SK-OV-3 [17]): 106% | growth at 1 µM (M14 [18]): 87% | growth at 1 µM (BT-549 [19]): 90% | growth at 100 µM (SF-268): -38% | growth at 0.01 µM (ACHN): 97% | growth at 0.1 µM (NCI-H23): 90% | growth at 1 µM (LOX IMVI): 87% | GI50 (Malme-3M; read-out: GI50): 11.4 µM | CC50 (Malme-3M; [21]): > 100 µM | TGI (Malme-3M; read-out: TGI): 81 µM | GI50 (Malme-3M; read-out: pGI50 (converted)): 11.5 µM | CC50 (Malme-3M; [22]): > 100 µM | TGI (Malme-3M; read-out: pTGI (converted)): 81.3 µM | GI50 (OVCAR-5 [20]; read-out: GI50): 6.53 µM | CC50 (OVCAR-5 [20]; [21]): > 100 µM | TGI (OVCAR-5 [20]; read-out: TGI): 32.7 µM | GI50 (OVCAR-5 [20]; read-out: pGI50 (converted)): 6.61 µM | CC50 (OVCAR-5 [20]; [22]): > 100 µM | TGI (OVCAR-5 [20]; read-out: pTGI (converted)): 32.4 µM
